These results are taken from patent US20230212571A1, “COMPOSITIONS AND METHODS FOR DELIVERING POLYNUCLEOTIDES” (NeOnc Technologies, Inc., priority 2020, published 2023).

Data set [1] deals with Mgp^−/− mouse model of AVM. Description: Brain appearance and immunostaining of brain sections. The following applies: Mgp^−/− mice, IN 2-weeks. Format: in vivo. The protocol:
Immunostaining was performed as previously described^15. ([…], Golden […], et al. Glioma-associated endothelial cells are chemoresistant to temozolomide. J Neurooncol. 2009; 95(1):13-22). Primary antibodies used were rabbit anti-MMP2, mouse anti-MMP9 (1:150, Abgent), rabbit anti-phospho-Smad1/5 ([…]/465) (1:50, Abgent), rabbit anti-BMP4, rabbit anti-PAI-1 (1:50, Proteintech), rabbit anti-VEGF (1:50, Santa Cruz Biotechnology), rabbit anti-HIF-1α (1:50, Cell Signaling Technology), and rabbit anti-phospho-Smad3 ([…]/425) (1:50, GeneTex). Secondary antibodies used were biotinylated anti-rabbit and biotinylated anti-mouse (1:300, Vector Laboratories), accordingly. Pictures were taken in an Eclipse 80i microscope (Nikon). Images shown are representative of three-five independent experiments. In vivo efficacy studies were performed using 3-week-old Mgp^+/- C57BL/6 mice^16,17 (Yao Y, Jumabay M, Wang A, Boström K I. Matrix Gla protein deficiency causes arteriovenous malformations in mice. J Clin Invest. 2011; 121(8):2993-3004) (Yao Y, Yao […], et al. Reducing Jagged 1 and 2 levels prevents cerebral arteriovenous malformations in matrix Gla protein deficiency. Proc Nat Acad Sci USA. 2013; 110(47):19071-19076). provided by Dr. Yucheng Yao (UCLA, Los Angeles) and mated to obtain the appropriate genotypes. Only about 10-15% of each litter were born with the Mgp^-/- genotype, and among those, only about 45% survived until the end of the treatment and/or the imaging of the brain vasculature, due to the extreme severity of the disease in this mouse model. These animals not only suffer AVMs in the brain, but all major organs are also affected and dysfunctional. Thus, […] might die due to several causes, including stroke, severe lung inflammation that causes respiratory failure-especially when anesthesia is used-, organ failure due to liver and/or spleen malfunction, heart failure, etc., drastically limiting the number of the Mgp^-/- mice available for the CTA studies. […] Treatment with 0.08 nmol/mouse of miR-18a or scramble microRNA was administered IN daily for 2-weeks. 2.5 μL/nostril were delivered in RNase-free water. Ultra-high-resolution in vivo computed tomography angiography (CTA) was performed in mice for 3D imaging of whole brain vascular architecture^18, ([…], Rendon D, et al. Ultra-High-Resolution In vivo Computed Tomography Imaging of Mouse Cerebrovasculature Using a Long Circulating Blood Pool Contrast Agent. Scientific reports. 2015; 5:10178) as described in Data. The vascular data was quantified using ImageJ. Regions of interest encompassing the Circle of Willis (CoW) and the azygous of the anterior cerebral artery (AzACA) and its branches were selected in CT images using thick slab maximum intensity projection (MIP) or 3D volume rendering. The images were converted to 8-bit grayscale and thresholded to highlight the vasculature containing pixels. The pixels were analyzed as particles and normalized to results from the wildtype mice (WT, Mgp^+/+). Immediately after imaging, mice were euthanized, and brains were frozen in Clear Frozen Section Compound (VWR) and stored at -80° C. Blood was collected for complete blood count (Antech). The lungs, livers, spleens, femurs, and kidneys were harvested and fixed in 10% formalin. Photographs of the stained sections were captured using an Eclipse 80i microscope (Nikon).

Data set [2] relates to AVM-BEC. The following applies: previous results from our laboratory (Ferreira 2014); cited from earlier work.

“hsa-miR-18a-5p (UAGGUGCAUCUAGUGCAGAUAG; chemistry not given here; listed as Homo sapiens) [small non-coding RNA molecule involved in post-transcriptional regulation of gene expression; Dharmacon]”: in data set [1], the “activation (phosphorylation) of Smad1/5 in brain sections (IHC)” value was “decreased”, the “expression of BMP4 in brain sections (IHC)” value is listed as “decreased”, the “expression of HIF-1α in brain sections (IHC)” value is on record as “decreased” and the “expression of PAI-1 in brain sections (IHC)” value is listed as “decreased”. Besides, in data set [1], the “expression of VEGF in brain sections (IHC)” value was “decreased”; the “signs of fresh hemorrhage and presence of abnormally enlarged blood vessels in the brain” value is listed as “reduced”. Further, in data set [2], the “TSP-1 release by AVM-BECs (ELISA of cell supernatants)” value was “induces TSP-1 release”.
